Where no end group is shown, it is not given here.
Assays:
[1] = test system: Anti-bursin antiserum; experiment: ELISA blocking of anti-bursin antiserum binding by absorbants; set-up: species or system rabbit; conditions: FIG. 3B
Description: Antisera were tested for activity in the following ELISA protocol. The assays were performed according to the method of Voller et al, Bull. WHO, 53:55 (1976). Briefly, polyvinyl chloride microtiter plates (Fisher Scientific, Springfield, N.J.) were coated overnight with 100 ul/well of 10 ug/ml solution of tetramer of probursin in 0.1 M phosphate buffer, pH 7.2. Plates were washed and were postcoated with 150 ul/well of 0.5 percent bovine serum albumin in PBS, pH 7.2, for one hour at room temperature. Plates were washed, dried at 37° C. for 6-24 hours and sealed in dessicated packages and stored at 4° C.
Antisera to be tested were diluted in PBS containing 0.05 percent Tween 20. One hundred ul of the diluted sera were added per well in triplicates. Normal rabbit or mouse serum was used as the negative control. After 60 minutes of incubation at room temperature the plates were washed three times with PBS Tween-20. One hundred ul of alkaline phosphatase conjugated to affinity-purified goat anti-rabbit IgG (heavy and light chains) diluted 1:2000 in PBS Tween-20 were added to each well. The plates were incubated at room temperature for 60 minutes. […] After 30 minutes of incubation at room temperature the reaction was terminated with the addition of 50 ul/well of 5 N NaOH and the optical density was read at 410 nm. […]

[2] = test system: MOPC-315 cells; experiment: Cyclic GMP assay in MOPC-315 cells; format: cell-based; conditions: 0 to 1000 micrograms/ml, FIG. 5B
[3] = test system: SV40 transformed hamster beta cells (HIT); experiment: Growth hormone inhibition: GRF-stimulated 3H inositol phosphate (IP) release and growth hormone (GH) accumulation, RIA of supernatant; format: cell-based; conditions: for [GH] / [IP]: 15 min
Description: An assay was performed to study the effect of probursin in combination with growth hormone releasing factor (GRF) as this combination effects the release of ^3 H inositol phosphate (IP) and growth hormone (GH) accummulation in SV40 transformed hamster beta cells (HIT). The experiment was performed according to the procedures described in M. J. Berridge et al, cited above.
Briefly described, commercially available HIT cells were incubated at 37° C. for 1 hour in metabolic RPMI medium with 5% fetal calf serum (FCS). GRF in varying concentrations indicated in the Table below was added to the cell culture and incubated for 15 minutes at 37° C. The cells were then centrifuged at 800 rpm and the supernatant collected. Levels of GH and IP were measured in the supernatant by radioimmunoassay (RIA) also according to Berridge et al. These measurements formed the GRF control.
The same procedure was followed without the addition of GRF and is indicated below as the control.
Similarly, to indicate the effect of probursin on GRF, the procedure above was followed except that GRF and probursin at the appropriate concentrations indicated in the Table below were added to the cells together and followed by 15 minutes incubation and centrifugation. When the supernatant was measured by RIA as described above, the resulting concentrations of IP and GH were determined as illustrated in the Table below.

[4] = test system: Daudi cells; experiment: Cyclic GMP assay in Daudi cells; format: cell-based; conditions: 0 to 1000 micrograms/ml, FIG. 5A
Description: Daudi cells were freshly seeded and grown for 2 days with harvesting as described in T. Audhya et al, Arch. Biochem Biophys., 234:167-177 (1984). The cells were washed 3 times in PBS and resuspended in RPMI 1640 at a concentration of 1.0×10^7 cells/ml and were allowed to equilibrate at 37° C. for 30 minutes before the addition of the test compounds (25 ul) of bursin and probursin, and control peptides porcine insulin (A), equine myoglobin (B) and bovine growth hormone (C). The incubation was allowed to proceed in a shaking water bath for 4-5 minutes and was then terminated by addition of 1 ml ice-cold TCA (10%).
The cells in TCA were homogenized and sonicated to release cyclic nucleotide. The suspension was centrifuged at 3000×g for 20 minutes at 4° C. The resulting precipitate was dissolved in 0.1 N NaOH to determine the protein content. TCA was removed from the supernatant fraction by extracting 4 times with 5 ml of water-saturated diethyl ether. […]
Dose-response curves from 0 to 1000 micrograms/ml were evaluated for bursin, probursin and controls. […] A threshold activity was determined for each peptide tested. […] Test results were considered positive if the level of cyclic GMP was greater than 1.52 times (2 standard deviations) that determined for the parallel negative control.

[5] = GRF (0.1 nM) + Probursin (.1 μM)
[6] = GRF (1 nM) + Probursin (0.1 μM)
[7] = GRF (1 nM) + Probursin (1.0 μM)
[8] = GRF (10 nM) + Probursin (10.0 μM)
[9] = GRF 0.1 nM alone, HIT cell supernatant
[10] = GRF 1 nM alone, HIT cell supernatant
[11] = GRF 10 nM alone, HIT cell supernatant

Substance | blocking of anti-bursin antiserum binding [1] | induction of intracellular cyclic GMP (dose-response) [2] | [GH] [3, 5] [n/ml] | [IP] [3, 5] [cpm] | [GH] [3, 6] [n/ml] | [IP] [3, 6] [cpm] | [GH] [3, 7] [n/ml] | [IP] [3, 7] [cpm] | [GH] [3, 8] [n/ml] | [IP] [3, 8] [cpm] | effect on growth hormone releasing factor action (IP and GH) ([3]; HIT cells, summary in words) | release of growth hormone ([3]; summary in words, refers to Example 6) | induction of intracellular cyclic GMP (dose-response) [4] | [GH] [3, 9] [n/ml] | [IP] [3, 9] [cpm] | [GH] [3, 10] [n/ml] | [IP] [3, 10] [cpm] | [GH] [3, 11] [n/ml] | [IP] [3, 11] [cpm]
FFWKTKPRKHGGRR [Probursin, Phe-Phe-Trp-Lys-Thr-Lys-Pro-Arg-Lys-His-Gly-Gly-Arg-Arg] | blocked | active | 35 ± 4 | 239 ± 13 | 480 ± 31 | 1911 ± 310 | 77 ± 6 | 444 ± 22 | 29 ± 3 | 382 ± 16 | marked suppression | inhibit | active |  |  |  |  |  | 
GRF: growth hormone releasing factor, stimulus in HIT cell assay (YADAIFTNSYRKVLGQLSARKLLQDIMSRQQGESNQERGARARL; ends and bridges not checked; UniProt P01286 32-75, looked up) [reference compound] |  |  |  |  |  |  |  |  |  |  |  |  |  | 162 ± 4 | 489 ± 19 | 648 ± 26 | 2810 ± 290 | 1162 ± 84 | 8962 ± 821

Reference: patent publication US4994554A, “Probursin” (Immunobiology Research Institute, Inc., priority 1988, dated 1991)
